Assay results from patent US7455998B2, “Methods for forming structurally defined organic molecules” (Dow Corning Corporation, priority 2004, dated 2008).

Columns and labels:
[1] = target: T1, trypsin (Bos taurus, UniProt P00760); experiment: Trypsin-catalyzed hydrolysis and condensation of alkoxysilanes; assay type: biochemical, bovine; parameters: purchased Sigma-Aldrich #T4665; host or cells: bovine pancreas; details: 4:1 monomer to enzyme weight ratio, 25° C., three hours
T1 sequence (P00760 24-246): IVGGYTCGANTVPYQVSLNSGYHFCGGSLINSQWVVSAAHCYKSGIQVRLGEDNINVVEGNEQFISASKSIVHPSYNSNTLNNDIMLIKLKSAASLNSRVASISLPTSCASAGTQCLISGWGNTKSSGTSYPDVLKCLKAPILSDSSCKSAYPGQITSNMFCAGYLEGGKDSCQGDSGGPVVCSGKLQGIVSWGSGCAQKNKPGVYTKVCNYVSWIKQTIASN

[2] = target: T1, trypsin; experiment: Trypsin-catalyzed ring opening polymerization of cyclic siloxanes; assay type: biochemical, bovine; parameters: purchased Sigma-Aldrich #T4665; host or cells: bovine pancreas; details: 25° C., pH 7.0, 8 days, qualitative GC; for Cyclic Area Percent, Trimer (x = 3), Trypsin / Cyclic Area Percent, Tetramer (x = 4), Trypsin / Cyclic Area Percent, Pentamer (x = 5), Trypsin: with trypsin; for Cyclic Area Percent, Trimer (x = 3), Control / Cyclic Area Percent, Tetramer (x = 4), Control / Cyclic Area Percent, Pentamer (x = 5), Control: without trypsin
From the text: The ability of trypsin to catalyze the cleavage and formation of Si—O bonds during the ring opening polymerization of cyclic siloxanes was explored under mild conditions. Specifically, five cyclic siloxanes: hexamethylcyclotrisiloxane, octamethylcyclotetrasiloxane, trimethyltri(trifluoropropyl)cyclotrisiloxane, tetramethyltetra(trifluoropropyl)cyclotetrasiloxane, and tetramethyltetraphenylcyclotetrasiloxane, were selected to study how the activity of trypsin varied as a result of different steric and electronic interactions with the substrate.
The two-phase reactions were formulated with a 4:1 monomer to enzyme weight ratio and conducted at 25° C. in neutral media (pH 7.0) for 8 days. The reaction products were isolated and qualitatively analyzed by GC (Table 5).

[3] = Protease-catalyzed condensation study after three hours; assay type: biochemical
Experimental: In comparison to control reactions, the ability of the proteases detailed in Table 3 to catalyse siloxane condensation was screened with […]. Comparatively, the original reactions conducted in the enzyme-catalysed condensation study were performed for six days versus three hours in this study.
Prior to reaction, the glass vials were silylated. […].
TLCK inhibits trypsin by alkylating the histidine residue in the catalytic triad.

[4] = Hydrolysis and condensation control reactions after three hours; details: for condensation of trimethylethoxysilane (result in words): pH 7.0, 25° C., three hours
Experimental: Prior to reaction, the alkoxysilane was pre-treated with sodium hydrogencarbonate due to the potential presence of residual chloro-functional silanes. The reactions were formulated with a 4:1 trimethylethoxysilane to protein weight ratio (˜1000:l alkoxysilane to trypsin mole ratio) in neutral media (pH 7.0) and conducted at 25° C. for three hours.

[5] = Enzyme-catalyzed condensation study after six days; assay type: biochemical; details: water, 25° C.
From the text: This study was directed to an enzyme screen with […] in order to evaluate the ability of various enzymes to catalyze the formation of a siloxane bond. Based on the similarities of the proteins isolated from the Tethya aurantia marine sponge (silicatein), Cylindrotheca fusiformis diatom (silaffin), and Equisetum telmateia plant (biopolymer extract), a series of lipases and serine-proteases were selected as homologous proteolytic enzymes. […] […]. In this study, control reactions were defined as non-enzymatic reactions. Specifically, experiments conducted in the absence of a protein were defined as negative control reactions. Proteinaceous molecules such as bovine serum albumin and porcine γ-globulins were used to study non-specific protein catalysis.
[…]. […] (˜200 mg/mL).

[6] = Hydrolysis and condensation of trimethylethoxysilane by different sources of trypsin; effect of calcium; assay type: biochemical; details: for increase of yield of the condensation of trimethylsilanol with calcium: 20 mM CaCl2, pH 7.0, 25° C., three hours; for hydrolysis of trimethylethoxysilane and condensation of trimethylsilanol (result in words): pH 7.0, 25° C.
From the text: Although various sources (e.g. mammalian, fish) of trypsin are similar (e.g. tertiary structure), their selectivity and activity may be different. […] . The reaction products were isolated and quantitatively analysed by GC (FIG. 24).
Calcium activation of trypsin induces changes in the tertiary structure of the enzyme. […] . […] The reaction products were isolated and quantitatively analysed by GC (FIG. 25).

CCO[Si](C)(C)CCCOCC1CO1 (centres unmarked) [3-glycidoxypropyldimethylethoxysilane]
trypsin-catalyzed hydrolysis and condensation (result in words) [1]: preferentially catalyze the hydrolysis and condensation

C[Si]1(C)O[Si](C)(C)O[Si](C)(C)O1 [A, hexamethylcyclotrisiloxane]
Cyclic Area Percent, Trimer (x = 3), Trypsin [2]: (100) | Cyclic Area Percent, Trimer (x = 3), Control [2]: (100)

C[Si]1(C)O[Si](C)(C)O[Si](C)(C)O[Si](C)(C)O1 [B, octamethylcyclotetrasiloxane]
Cyclic Area Percent, Tetramer (x = 4), Trypsin [2]: (99.8) | Cyclic Area Percent, Trimer (x = 3), Trypsin [2]: (0.2) | Cyclic Area Percent, Tetramer (x = 4), Control [2]: (99.8) | Cyclic Area Percent, Trimer (x = 3), Control [2]: (0.2)

C[Si]1(CCC(F)(F)F)O[Si](C)(CCC(F)(F)F)O[Si](C)(CCC(F)(F)F)O1 (centres unmarked) [C, trimethyltri(trifluoropropyl)cyclotrisiloxane]
Cyclic Area Percent, Pentamer (x = 5), Trypsin [2]: (1.0) | Cyclic Area Percent, Tetramer (x = 4), Trypsin [2]: (1.9) | Cyclic Area Percent, Trimer (x = 3), Trypsin [2]: (97.1) | Cyclic Area Percent, Pentamer (x = 5), Control [2]: (0.8) | Cyclic Area Percent, Tetramer (x = 4), Control [2]: (1.7) | Cyclic Area Percent, Trimer (x = 3), Control [2]: (97.5)

[Ca+2].[Cl-].[Cl-] [CaCl2, calcium chloride]
condensation of trimethylsilanol (result in words) ([3]; pH 7): not observed | condensation of trimethylethoxysilane (result in words) [4]: not observed

C[Si]1(CCC(F)(F)F)O[Si](C)(CCC(F)(F)F)O[Si](C)(CCC(F)(F)F)O[Si](C)(CCC(F)(F)F)O1 (centres unmarked) [D, tetramethyltetra(trifluoropropyl)cyclotetrasiloxane]
Cyclic Area Percent, Pentamer (x = 5), Trypsin [2]: (5.1) | Cyclic Area Percent, Tetramer (x = 4), Trypsin [2]: (94.9) | Cyclic Area Percent, Trimer (x = 3), Trypsin [2]: (0) | Cyclic Area Percent, Pentamer (x = 5), Control [2]: (3.4) | Cyclic Area Percent, Tetramer (x = 4), Control [2]: (96.3) | Cyclic Area Percent, Trimer (x = 3), Control [2]: (0.2)

C[Si]1(c2ccccc2)O[Si](C)(c2ccccc2)O[Si](C)(c2ccccc2)O[Si](C)(c2ccccc2)O1 (centres unmarked) [E, tetramethyltetraphenylcyclotetrasiloxane]
Cyclic Area Percent, Tetramer (x = 4), Trypsin [2]: (100) | Cyclic Area Percent, Tetramer (x = 4), Control [2]: (100)

Cn1ccnc1 [N-methylimidazole]
condensation of trimethylsilanol (result in words) ([3]; pH 7.0, three hours): not observed | condensation of trimethylethoxysilane (result in words) [4]: not observed

Cc1ccc(S(=O)(=O)N[C@@H](CCCCN)C(=O)CCl)cc1.Cl [TLCK, N-α-p-tosyl-L-lysine chloromethyl ketone hydrochloride]
product yield of the α-chymotrypsin condensation reaction after TLCK treatment ([3]; replicate condensation experiment): significantly decreased

CCO[Si](C)(C)CCCN [aminopropyldimethylethoxysilane]
trypsin-catalyzed hydrolysis and condensation (result in words) [1]: fully hydrolysed and condensed in the presence and absence of trypsin

COCCOCCOCCOCCO[Si](C)(C)C [glycol-functional silane]
trypsin-catalyzed hydrolysis and condensation (result in words) [1]: not definitive

C[Si]1(C)O[Si](C)(C)O[Si](C)(O)O[Si](C)(C)O1 [heptamethylhydroxytetracyclosiloxane]
trypsin-catalyzed hydrolysis and condensation (result in words) [1]: did not catalyze the condensation

c1c[nH]cn1 [imidazole]
condensation of trimethylsilanol (result in words) ([3]; pH 7.0, three hours): not observed | condensation of trimethylethoxysilane (result in words) [4]: not observed

CCO[Si](C)(C)c1ccccc1 [phenyldimethylethoxysilane]
trypsin-catalyzed hydrolysis and condensation (result in words) [1]: hydrolysed but not condensed

CCCCCCO[Si](C)(C)C [trimethylhexoxysilane]
trypsin-catalyzed hydrolysis and condensation (result in words) [1]: catalyzed the partial hydrolysis of trimethylhexoxysilane without condensation

elastase: porcine pancreatic elastase
condensation of trimethylsilanol (result in words) ([3]; pH 7.0, three hours): inactivity

poly-L-lysine
condensation of trimethylsilanol (result in words) ([3]; pH 7.0, three hours): not observed | hydrolysis of trimethylethoxysilane (result in words) ([4]; neutral medium (pH 7.0)): promoted the hydrolysis | condensation of trimethylethoxysilane (result in words) [4]: not observed

B1: Candida antarctica lipase B: Candida antarctica lipase B immobilized on acrylic resin beads (protein, UniProt P41365 26-342, looked up)
Lipase B: LPSGSDPAFSQPKSVLDAGLTCQGASPSSVSKPILLVPGTGTTGPQSFDSNWIPLSTQLGYTPCWISPPPFMLNDTQVNTEYMVNAITALYAGSGNNKLPVLTWSQGGLVAQWGLTFFPSIRSKVDRLMAFAPDYKGTVLAGPLDALAVSAPSVWQQTTGSALTTALRNAGGLTQIVPTTNLYSATDEIVQPQVSNSPLDSSYLFNGKNVQAQAVCGPLFVIDHAGSLTSQFSYVVGRSALRSTTGQARSADYGITDCNPLPANDLTPEQKVAAAALLAPAAAAIVAGPKQNCEPDLMPYARPFAVGKRTCSGIVTP
modifications: immobilized on acrylic resin
notes: Candida antarctica lipase B immobilized on acrylic resin beads
condensation of trimethylsilanol, Water [5]: ✓ (determined to catalyse the condensation of greater than ten times more trimethylsilanol than the negative control reactions; as well as, greater than three or ten times more trimethylsilanol than the BSA reactions in organic and aqueous media, respectively)

B2: recombinant bovine trypsin: Recombinant bovine trypsin expressed in maize (protein, UniProt P00760 24-246, looked up)
Serine protease 1: T1 sequence (P00760 24-246)
modifications: expressed in maize
increase of yield of the condensation of trimethylsilanol with calcium [6]: 65% | hydrolysis of trimethylethoxysilane and condensation of trimethylsilanol (result in words) [6]: catalysed the complete hydrolysis

B3: porcine pancreas trypsin: porcine pancreatic trypsin (protein, UniProt P00761 9-231, looked up)
Trypsin: IVGGYTCAANSIPYQVSLNSGSHFCGGSLINSQWVVSAAHCYKSRIQVRLGEHNIDVLEGNEQFINAAKIITHPNFNGNTLDNDIMLIKLSSPATLNSRVATVSLPRSCAAAGTECLISGWGNTKSSGSSYPSLLQCLKAPVLSDSSCKSSYPGQITGNMICVGFLEGGKDSCQGDSGGPVVCNGQLQGIVSWGYGCAQKNKPGVYTKVCNYVNWIQQTIAAN
increase of yield of the condensation of trimethylsilanol with calcium [6]: 125% | hydrolysis of trimethylethoxysilane and condensation of trimethylsilanol (result in words) [6]: catalysed the complete hydrolysis | hydrolysis of trimethylethoxysilane and condensation of trimethylsilanol (result in words) ([6]; listed as trypsin from porcine pancreas): observed to catalyse the hydrolysis and condensation reactions

B4: Rhizomucor miehei lipase: fungal lipase (protein, UniProt P19515 95-363, looked up)
Lipase: SIDGGIRAATSQEINELTYYTTLSANSYCRTVIPGATWDCIHCDATEDLKIIKTWSTLIYDTNAMVARGDSEKTIYIVFRGSSSIRNWIADLTFVPVSYPPVSGTKVHKGFLDSYGEVQNELVATVLDQFKQYPSYKVAVTGHSLGGATALLCALDLYQREEGLSSSNLFLYTQGQPRVGDPAFANYVVSTGIPYRRTVNERDIVPHLPPAAFGFLHAGEEYWITDNSPETVQVCTSDLETSDCSNSIVPFTSVLDHLSYFGINTGLCT
condensation of trimethylsilanol, Water [5]: ✓ (determined to catalyse the condensation of greater than ten times more trimethylsilanol than the negative control reactions; as well as, greater than three or ten times more trimethylsilanol than the BSA reactions in organic and aqueous media, respectively)
